From patent US11214803B2, “Modulators of YAP1 expression” (Ionis Pharmaceuticals, Inc., priority 2019, dated 2022)
Strand notation (5' to 3'): a small letter for the sugar, then the base; units joined by * are phosphorothioate-linked, units joined directly phosphodiester-linked; [ ] holds rarer units or linkages, { } end groups; capitals alone tell only the bases. e = 2'-O-(2-methoxyethyl) (MOE); k = constrained ethyl (cEt); [5mC] = 5-methylcytosine; d = 2'-deoxy (DNA); m = 2'-O-methyl

The substances below were run on Yap1 mRNA (assay: Antisense inhibition of human Yap1 in SNU-449 cells by modified oligonucleotides, single dose (Example 5, RTS36584)). Settings: Table 39; SNU-449 cells, 10,000 cells per well, free uptake, 2,000 nM oligonucleotide, approx. 48 hours; RTS36584; normalized to RIBOGREEN; Yap1 mRNA relative to untreated control.
Assay type: cell-based
In short: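 Plate SNU-449 cells at 10,000 per well; add 2,000 nM modified oligonucleotide without transfection reagent; after ~48 h isolate RNA, run qRT-PCR with RTS36584, normalise to RIBOGREEN and report % UTC.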

Substance	YAP1 (% UTC)
1198413 (kT*dT*dT*dA*dG*dG*dA*dT*dG*d[5mC]*dA*kT*eG*kG*eT*kT) [Compound 1198413]	29 % UTC
1198405 (k[5mC]*dT*dT*dT*dG*dG*dA*dA*dG*dA*dT*k[5mC]*eT*kG*eA*kA; antisense) [Compound 1198405]	36 % UTC
1198379 (kA*dG*dT*dA*dT*dG*dT*dG*dG*d[5mC]*dA*kA*eT*kA*eA*kT) [Compound 1198379]	45 % UTC

Same assay, conditions: Table 40 (separate experiment); SNU-449 cells, 10,000 cells per well, free uptake, 2,000 nM oligonucleotide, approx. 48 hours; RTS36584; normalized to RIBOGREEN; Yap1 mRNA relative to untreated control

Substance	YAP1 (% UTC)
1198729 (kA*eT*kA*dT*dT*dA*dG*dA*dG*dT*dA*dT*eG*eT*kG*kG; antisense) [Compound 1198729]	21 % UTC
1198801 (antisense kG*eA*k[5mC]*dT*dA*dA*dG*dT*dA*dA*dG*dG*eT*eT*kT*k[5mC]) [Compound 1198801]	47 % UTC
1198763 (kG*eA*kT*dT*dT*dA*dG*dG*dA*dT*dG*d[5mC]*eA*eT*kG*kG; antisense) [Compound 1198763]	26 % UTC
1198742 (kT*eT*kT*dT*dA*d[5mC]*dA*dT*dT*dA*dG*dG*eA*eA*k[5mC]*kA; antisense) [Compound 1198742]	143 % UTC

Same assay, conditions: Table 41; SNU-449 cells, 10,000 cells per well, free uptake, 2,000 nM modified oligonucleotide, approximately 48 hours; RTS36584; normalized to RIBOGREEN; Yap1 mRNA relative to untreated control cells

Substance	YAP1 (% UTC)
1198660 (antisense kG*kG*dA*dA*dG*dA*dT*d[5mC]*dT*dG*dA*dA*kA*e[5mC]*kT*e[5mC]) [Compound 1198660]	66 % UTC
1198789 (antisense kA*eA*kA*dG*dT*dG*dT*dA*dT*dG*dT*d[5mC]*eA*eG*kA*kA) [Compound 1198789]	22 % UTC
1198674 (antisense kA*kG*dA*dT*dT*dT*dA*dG*dG*dA*dT*dG*k[5mC]*eA*kT*eG) [Compound 1198674]	21 % UTC

Same assay, conditions: Table 42 (separate experiment); SNU-449 cells, 10,000 cells per well, free uptake, 2,000 nM modified oligonucleotide, approximately 48 hours; RTS36584; normalized to RIBOGREEN; Yap1 mRNA relative to untreated control cells

Substance	YAP1 (% UTC)
1198237 (AGTGCTTTGGAAGATC; chemistry not fully specified) [Compound 1198237]	51 % UTC
1198678 (antisense kA*kT*dA*dT*dG*dG*dT*dT*dT*dT*dG*dT*kG*eT*kG*eT) [Compound 1198678]	58 % UTC
1198711 (kG*kA*d[5mC]*dT*dA*dA*dG*dT*dA*dA*dG*dG*kT*eT*kT*e[5mC]; antisense) [Compound 1198711]	60 % UTC

Same assay, conditions: Table 43 experiment; SNU-449 cells, 10,000 cells per well, free uptake, 2,000 nM, approximately 48 hours; RTS36584; Yap1 mRNA normalized to RIBOGREEN, relative to untreated control cells

Substance	YAP1 (% UTC)
1198259 (kA*kA*dT*dA*dT*dT*dG*d[5mC]*dA*dA*dT*e[5mC]*eT*eG*kT*k[5mC]; antisense) [Compound 1198259]	51 % UTC
1198264 (kT*kA*dT*dG*dT*dA*dA*dT*dA*dT*dT*eG*e[5mC]*eA*kA*kT; antisense) [Compound 1198264]	73 % UTC
1198263 (kA*kT*dG*dT*dA*dA*dT*dA*dT*dT*dG*e[5mC]*eA*eA*kT*k[5mC]; antisense) [Compound 1198263]	114 % UTC
1198246 (kT*k[5mC]*dA*dG*dA*dT*dT*dT*dA*dG*dG*eA*eT*eG*k[5mC]*kA; antisense) [Compound 1198246]	30 % UTC

Same assay, conditions: Table 44 experiment; SNU-449 cells, 10,000 cells per well, free uptake, 2,000 nM, approximately 48 hours; RTS36584; Yap1 mRNA normalized to RIBOGREEN, relative to untreated control cells

Substance	YAP1 (% UTC)
1198513 (k[5mC]*kA*dA*d[5mC]*dT*d[5mC]*dT*dT*dA*dT*dA*eT*kG*eG*kT*eT; antisense) [Compound 1198513]	63 % UTC
1198494 (antisense kG*kT*dG*d[5mC]*dT*dT*dT*dG*dG*dA*dA*eG*kA*eT*k[5mC]*eT) [Compound 1198494]	15 % UTC
1198535 (kA*kA*dG*dT*dA*dA*dG*dG*dT*dT*dT*e[5mC]*k[5mC]*e[5mC]*kA*eG; antisense) [Compound 1198535]	35 % UTC
1198514 (kG*kA*d[5mC]*dA*dA*d[5mC]*dT*d[5mC]*dT*dT*dA*eT*kA*eT*kG*eG; antisense) [Compound 1198514]	53 % UTC
1198501 (kG*kA*dT*dT*dT*dA*dG*dG*dA*dT*dG*e[5mC]*kA*eT*kG*eG; antisense) [Compound 1198501]	5 % UTC

Same assay, conditions: Table 45; Yap1 mRNA as percent of untreated control, SNU-449 cells, single dose

Substance	YAP1 (% UTC)
1198931 (kA*kG*dG*dA*dT*dG*d[5mC]*dA*dT*dG*dG*kT*dT*kT*dT*kT; antisense) [Compound 1198931]	47 % UTC
1198945 (kA*k[5mC]*dT*d[5mC]*dT*dT*dA*dT*dA*dT*dG*kG*dT*kT*dT*kT; antisense) [Compound 1198945]	48 % UTC
1198942 (k[5mC]*kT*dT*dA*dT*dA*dT*dG*dG*dT*dT*kT*dT*kG*dT*kG; antisense) [Compound 1198942]	42 % UTC

Same assay, conditions: Table 46; Yap1 mRNA as percent of untreated control, SNU-449 cells, single dose

Substance	YAP1 (% UT)
1198828 (kT*kT*dT*dT*dA*d[5mC]*dA*dT*dT*dA*dG*kG*eA*kA*e[5mC]*kA; antisense) [Compound 1198828]	59 % UT
1198883 (kA*kA*dG*dT*dA*dA*dG*dG*dT*dT*dT*k[5mC]*e[5mC]*k[5mC]*eA*kG; antisense) [Compound 1198883]	47 % UT
1198816 (antisense kT*kT*dA*dG*dA*dG*dT*dA*dT*dG*dT*kG*eG*k[5mC]*eA*kA) [Compound 1198816]	27 % UT

Same assay, conditions: Table 48; Yap1 mRNA level relative to untreated control; modified oligonucleotides targeting SEQ ID NO.: 1 and 2

Substance	YAP1 (% UT)
1198284 (kT*kG*kT*d[5mC]*dT*d[5mC]*dA*dT*dG*d[5mC]*d[5mC]*dT*kT*eA*kT*eA; antisense) [Compound 1198284]	27 % UT
1197204 (antisense k[5mC]*kA*kA*d[5mC]*dT*d[5mC]*dT*dT*dA*dT*dA*dT*dG*kG*kT*kT) [Compound 1197204]	89 % UT

Same assay, conditions: Table 49; Yap1 mRNA level relative to untreated control; modified oligonucleotides targeting SEQ ID NO.: 1 and 2

Substance	YAP1 (% UT)
1198565 (antisense kT*kT*kA*d[5mC]*dA*dT*dT*dA*dG*dG*dA*dA*k[5mC]*kA*kA*eG) [Compound 1198565]	53 % UT
1198567 (antisense k[5mC]*kT*kT*dT*dT*dA*d[5mC]*dA*dT*dT*dA*dG*kG*kA*kA*e[5mC]) [Compound 1198567]	54 % UT
1198552 (antisense kA*kG*kA*dG*dT*dA*dT*dG*dT*dG*dG*d[5mC]*kA*kA*kT*eA) [Compound 1198552]	17 % UT
1198583 (antisense kA*kG*kG*dA*dT*dG*d[5mC]*dA*dT*dG*dG*dT*kT*kT*kT*eT) [Compound 1198583]	27 % UT
1198353 (kA*kG*kT*dG*dT*dA*dT*dG*dT*d[5mC]*dA*dG*kA*eA*kG*eA; antisense) [Compound 1198353]	8 % UT

Same assay, conditions: Table 50; Yap1 mRNA remaining as percent of untreated control (UT), SNU-449 cells, single dose

Substance	YAP1 (% UT)
1198603 (antisense kA*kA*kT*dA*dT*dT*dG*d[5mC]*dA*dA*dT*d[5mC]*kT*kG*kT*e[5mC]) [Compound 1198603]	51 % UT
1198599 (antisense k[5mC]*kA*kA*d[5mC]*dT*d[5mC]*dT*dT*dA*dT*dA*dT*kG*kG*kT*eT) [Compound 1198599]	90 % UT
1198614 (antisense kT*kA*kA*dA*dG*dT*dG*dT*dA*dT*dG*dT*k[5mC]*kA*kG*eA) [Compound 1198614]	4 % UT

Same assay, conditions: Table 52; Yap1 mRNA, modified oligonucleotides targeting SEQ ID NO: 1 and 2

Substance	YAP1 (% UT)
1200810 (kA*kA*k[5mC]*dA*d[5mC]*mU*dG*dA*dG*dG*dT*dA*dT*kA*kA*k[5mC]; antisense) [Compound 1200810]	94 % UT

Same assay, conditions: Yap1 mRNA, percent of untreated control; modified oligonucleotides targeting SEQ ID NO: 1 and 2; Table 47

Substance	YAP1 (% UT)
1197177 (antisense kA*kT*kT*dG*dT*d[5mC]*dT*d[5mC]*dA*dT*dG*d[5mC]*d[5mC]*kT*kT*kA) [Compound 1197177]	15 % UT
1074462 (kG*kG*kA*dA*dA*dT*dT*dG*dT*d[5mC]*dT*d[5mC]*dA*kT*kG*k[5mC]; antisense) [Compound 1074462]	7 % UT
1197196 (antisense k[5mC]*kA*kG*dA*dT*dT*dT*dA*dG*dG*dA*dT*dG*k[5mC]*kA*kT) [Compound 1197196]	27 % UT
